Measurements: ChEMBL document CHEMBL1909046, “DrugMatrix in vitro pharmacology data”

What was measured:
[1] = molecular target: Beta-2 adrenergic receptor (Homo sapiens, UniProt P07550); test: DRUGMATRIX: Adrenergic beta2 radioligand binding (ligand: [3H] CGP-12177); assay type: cell membranes, Membrane; conditions: cho; Not Active = under 50% inhibition at 10 µM
Insulin receptor = Insulin receptor (Rattus norvegicus, UniProt P15127); assay type: cell membranes, Wistar, Liver, Membrane; note: in other assays of this panel Not Active means under 50% inhibition at 10 µM
Sequence of Insulin receptor (P15127 27-759 limits assumed): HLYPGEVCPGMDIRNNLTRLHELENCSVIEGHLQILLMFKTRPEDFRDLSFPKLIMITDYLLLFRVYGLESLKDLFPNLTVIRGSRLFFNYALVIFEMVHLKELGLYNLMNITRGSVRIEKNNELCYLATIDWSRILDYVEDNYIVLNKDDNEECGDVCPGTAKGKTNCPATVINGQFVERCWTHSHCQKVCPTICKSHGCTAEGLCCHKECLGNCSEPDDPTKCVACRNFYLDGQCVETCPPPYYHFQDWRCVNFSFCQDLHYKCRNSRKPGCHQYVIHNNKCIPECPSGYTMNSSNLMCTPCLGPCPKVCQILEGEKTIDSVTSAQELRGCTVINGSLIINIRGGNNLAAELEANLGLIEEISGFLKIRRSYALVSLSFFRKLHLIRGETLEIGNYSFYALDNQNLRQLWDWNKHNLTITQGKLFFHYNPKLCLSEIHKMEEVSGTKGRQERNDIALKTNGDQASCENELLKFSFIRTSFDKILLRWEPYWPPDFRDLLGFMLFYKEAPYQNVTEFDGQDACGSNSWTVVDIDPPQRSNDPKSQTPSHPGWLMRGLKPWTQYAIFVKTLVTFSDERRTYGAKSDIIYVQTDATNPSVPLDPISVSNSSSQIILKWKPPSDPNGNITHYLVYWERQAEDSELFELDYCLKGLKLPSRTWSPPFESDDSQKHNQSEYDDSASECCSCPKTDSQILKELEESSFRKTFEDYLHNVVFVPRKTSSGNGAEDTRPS
Sequence of Insulin receptor (P15127 764-1383 limits assumed): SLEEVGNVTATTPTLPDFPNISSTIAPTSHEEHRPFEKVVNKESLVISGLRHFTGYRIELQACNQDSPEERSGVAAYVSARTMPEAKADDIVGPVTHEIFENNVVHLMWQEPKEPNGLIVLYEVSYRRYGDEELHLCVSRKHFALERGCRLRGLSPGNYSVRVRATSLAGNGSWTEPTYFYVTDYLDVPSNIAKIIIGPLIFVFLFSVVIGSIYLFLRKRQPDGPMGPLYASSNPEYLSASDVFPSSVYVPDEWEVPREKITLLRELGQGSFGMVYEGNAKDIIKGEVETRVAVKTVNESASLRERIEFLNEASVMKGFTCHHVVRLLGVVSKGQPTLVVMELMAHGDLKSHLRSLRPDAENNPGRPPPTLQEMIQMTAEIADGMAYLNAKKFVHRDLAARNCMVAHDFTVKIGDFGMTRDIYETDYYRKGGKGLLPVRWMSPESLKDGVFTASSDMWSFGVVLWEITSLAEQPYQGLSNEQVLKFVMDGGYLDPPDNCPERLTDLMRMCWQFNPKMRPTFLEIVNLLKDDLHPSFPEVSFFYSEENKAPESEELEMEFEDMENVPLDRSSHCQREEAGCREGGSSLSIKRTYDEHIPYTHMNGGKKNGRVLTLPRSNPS

[2] = DRUGMATRIX: Imidazoline I2, Central radioligand binding (ligand: [3H] Idazoxan); assay type: cell membranes, Rattus norvegicus, Wistar, Cerebral cortex, Membrane; conditions: Not Active = under 50% inhibition at 10 µM
[3] = DRUGMATRIX: Potassium Channel [KATP] radioligand binding (ligand: [3H] Glyburide); assay type: cell membranes, Membrane; conditions: hit-t15; Not Active = under 50% inhibition at 10 µM
Nitric oxide synthase 1 = Nitric oxide synthase 1 (Rattus norvegicus, UniProt P29476); assay type: tissue-based, Cerebellum; note: in other assays of this panel Not Active means under 50% inhibition at 10 µM
Sequence of Nitric oxide synthase 1 (P29476 whole entry): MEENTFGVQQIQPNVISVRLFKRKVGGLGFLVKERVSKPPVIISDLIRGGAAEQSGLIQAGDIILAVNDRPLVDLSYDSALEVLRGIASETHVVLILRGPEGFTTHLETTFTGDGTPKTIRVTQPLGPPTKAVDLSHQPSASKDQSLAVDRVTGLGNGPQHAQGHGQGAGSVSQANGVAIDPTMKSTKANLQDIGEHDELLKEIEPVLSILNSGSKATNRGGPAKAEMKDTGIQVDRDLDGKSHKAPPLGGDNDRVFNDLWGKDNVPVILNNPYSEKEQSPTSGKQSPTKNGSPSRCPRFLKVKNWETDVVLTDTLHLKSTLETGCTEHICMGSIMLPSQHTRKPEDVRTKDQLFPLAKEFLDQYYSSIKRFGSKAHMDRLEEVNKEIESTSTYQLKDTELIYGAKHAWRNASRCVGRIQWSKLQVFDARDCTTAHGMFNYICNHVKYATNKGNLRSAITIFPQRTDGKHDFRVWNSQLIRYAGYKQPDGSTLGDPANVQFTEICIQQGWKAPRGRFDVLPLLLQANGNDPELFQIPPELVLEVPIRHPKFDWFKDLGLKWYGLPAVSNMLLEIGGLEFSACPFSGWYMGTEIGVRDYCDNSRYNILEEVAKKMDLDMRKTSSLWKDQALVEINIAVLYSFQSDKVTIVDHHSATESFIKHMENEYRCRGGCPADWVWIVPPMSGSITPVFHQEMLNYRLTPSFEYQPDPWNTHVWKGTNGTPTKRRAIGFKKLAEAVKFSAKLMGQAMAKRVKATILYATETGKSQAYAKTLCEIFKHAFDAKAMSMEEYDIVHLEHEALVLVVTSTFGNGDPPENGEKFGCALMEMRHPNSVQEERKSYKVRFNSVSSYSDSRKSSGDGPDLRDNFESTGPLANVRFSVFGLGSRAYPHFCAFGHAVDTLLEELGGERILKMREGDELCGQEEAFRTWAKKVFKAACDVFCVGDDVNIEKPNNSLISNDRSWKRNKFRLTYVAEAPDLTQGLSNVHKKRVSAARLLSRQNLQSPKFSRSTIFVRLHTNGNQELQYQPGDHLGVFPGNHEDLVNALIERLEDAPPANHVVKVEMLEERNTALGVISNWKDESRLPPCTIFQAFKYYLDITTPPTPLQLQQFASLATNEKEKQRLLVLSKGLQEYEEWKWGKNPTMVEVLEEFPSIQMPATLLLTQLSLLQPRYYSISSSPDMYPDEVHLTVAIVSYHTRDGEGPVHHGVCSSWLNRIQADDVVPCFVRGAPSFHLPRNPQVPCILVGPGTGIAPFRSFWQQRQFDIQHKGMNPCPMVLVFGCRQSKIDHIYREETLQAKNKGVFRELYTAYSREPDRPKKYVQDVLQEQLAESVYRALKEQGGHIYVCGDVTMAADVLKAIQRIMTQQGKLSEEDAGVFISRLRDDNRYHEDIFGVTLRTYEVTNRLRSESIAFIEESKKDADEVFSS

[4] = molecular target: C-C chemokine receptor type 5 (Homo sapiens, UniProt P51681); assay type: cell membranes, HEK293, Membrane; conditions: hek293; note: in other assays of this panel Not Active means under 50% inhibition at 10 µM
Sequence of C-C chemokine receptor type 5 (P51681 whole entry): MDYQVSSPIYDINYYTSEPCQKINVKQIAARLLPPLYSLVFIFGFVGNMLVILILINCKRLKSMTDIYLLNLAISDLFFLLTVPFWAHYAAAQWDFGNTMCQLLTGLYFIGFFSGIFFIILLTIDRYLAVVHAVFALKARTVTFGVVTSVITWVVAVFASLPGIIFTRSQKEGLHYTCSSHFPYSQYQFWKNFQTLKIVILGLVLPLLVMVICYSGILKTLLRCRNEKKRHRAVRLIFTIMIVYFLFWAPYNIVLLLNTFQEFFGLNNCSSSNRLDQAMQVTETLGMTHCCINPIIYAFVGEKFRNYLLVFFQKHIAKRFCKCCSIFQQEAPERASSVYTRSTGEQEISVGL

[5] = DRUGMATRIX: Sigma2 radioligand binding (ligand: [3H] Ifenprodil); assay type: cell membranes, Rattus norvegicus, Wistar, Brain, Membrane; conditions: Not Active = under 50% inhibition at 10 µM
[6] = molecular target: Voltage-gated inwardly rectifying potassium channel KCNH2 (Homo sapiens, UniProt Q12809); conditions: hek293; note: in other assays of this panel Not Active means under 50% inhibition at 10 µM
Sequence of Voltage-gated inwardly rectifying potassium channel KCNH2 (Q12809 whole entry): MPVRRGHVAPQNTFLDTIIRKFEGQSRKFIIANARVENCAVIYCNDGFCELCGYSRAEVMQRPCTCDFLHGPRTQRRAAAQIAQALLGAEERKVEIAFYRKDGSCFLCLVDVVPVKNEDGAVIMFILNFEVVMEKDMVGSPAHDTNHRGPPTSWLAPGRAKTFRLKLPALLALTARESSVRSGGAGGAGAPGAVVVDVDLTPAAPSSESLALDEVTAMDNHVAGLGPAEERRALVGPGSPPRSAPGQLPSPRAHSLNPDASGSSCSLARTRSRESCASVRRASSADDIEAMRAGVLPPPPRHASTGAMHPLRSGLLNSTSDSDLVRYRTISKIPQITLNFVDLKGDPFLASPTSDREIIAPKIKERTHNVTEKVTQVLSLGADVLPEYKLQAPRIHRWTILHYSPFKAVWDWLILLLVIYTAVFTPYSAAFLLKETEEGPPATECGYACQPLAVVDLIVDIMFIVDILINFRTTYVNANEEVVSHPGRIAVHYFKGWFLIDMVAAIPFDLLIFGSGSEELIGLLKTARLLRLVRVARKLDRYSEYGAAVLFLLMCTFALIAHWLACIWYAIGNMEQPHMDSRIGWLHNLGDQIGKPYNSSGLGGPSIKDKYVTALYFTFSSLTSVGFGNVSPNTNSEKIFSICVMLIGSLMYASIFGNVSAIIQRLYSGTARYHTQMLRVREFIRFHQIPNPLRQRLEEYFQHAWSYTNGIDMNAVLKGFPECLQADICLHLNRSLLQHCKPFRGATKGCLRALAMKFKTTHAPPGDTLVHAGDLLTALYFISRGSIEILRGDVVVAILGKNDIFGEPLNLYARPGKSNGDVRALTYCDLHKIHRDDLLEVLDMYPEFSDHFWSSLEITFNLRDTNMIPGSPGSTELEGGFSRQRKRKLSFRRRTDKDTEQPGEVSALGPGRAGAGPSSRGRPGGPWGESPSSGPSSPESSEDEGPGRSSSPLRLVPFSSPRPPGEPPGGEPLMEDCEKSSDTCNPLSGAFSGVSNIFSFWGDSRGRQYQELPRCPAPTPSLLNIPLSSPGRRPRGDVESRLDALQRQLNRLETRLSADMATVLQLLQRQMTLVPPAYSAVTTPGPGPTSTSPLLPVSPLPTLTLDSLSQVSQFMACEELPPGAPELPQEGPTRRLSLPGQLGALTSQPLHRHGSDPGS

Sequence of Beta-2 adrenergic receptor (P07550 whole entry): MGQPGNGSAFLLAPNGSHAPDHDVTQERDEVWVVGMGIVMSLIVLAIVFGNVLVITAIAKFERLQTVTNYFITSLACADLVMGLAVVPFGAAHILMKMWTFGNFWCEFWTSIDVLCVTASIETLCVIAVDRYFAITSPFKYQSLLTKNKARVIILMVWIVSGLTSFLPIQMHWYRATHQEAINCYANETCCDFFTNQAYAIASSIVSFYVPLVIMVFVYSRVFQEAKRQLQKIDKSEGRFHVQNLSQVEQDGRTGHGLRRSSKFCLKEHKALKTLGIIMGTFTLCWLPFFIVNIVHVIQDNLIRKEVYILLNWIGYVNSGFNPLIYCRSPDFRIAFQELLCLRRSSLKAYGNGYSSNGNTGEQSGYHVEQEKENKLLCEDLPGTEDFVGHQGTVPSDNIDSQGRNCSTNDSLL

SMILES	IC50 [1]	IC50 (Insulin receptor)	IC50 [2]	Ki [2]	IC50 [3]	Ki [3]	IC50 (Nitric oxide synthase 1)	IC50 [4]	IC50 ([5]; read-out: IC50)	Ki ([5]; read-out: Ki)	IC50 [6]	Ki [6]	IC50 [5]	Ki [5]
O=C1CC2(CCCC2)CC(=O)N1CCCCN1CCN(c2ncccn2)CC1 [BUSPIRONE]	Not Active	Not Active	Not Active	Not Active	Not Active	Not Active	Not Active	Not Active	3380 nM	2080 nM	Not Active	Not Active		
C[C@@]12C(=O)OC(=O)[C@]1(C)[C@H]1CC[C@@H]2O1 [CANTHARIDIN]	Not Active	Not Active	Not Active	Not Active	Not Active	Not Active	Not Active	Not Active			Not Active	Not Active	Not Active	Not Active
O=NN(CCCl)C(=O)NCCCl [CARMUSTINE]	Not Active	Not Active	Not Active	Not Active	Not Active	Not Active	Not Active	Not Active			Not Active	Not Active	Not Active	Not Active
ClC(Cl)Cl [CHLOROFORM]	Not Active	Not Active	Not Active	Not Active	Not Active	Not Active	Not Active	Not Active			Not Active	Not Active	Not Active	Not Active
C=C1CC[C@H](O)C/C1=C/C=C1\CCC[C@]2(C)[C@@H]([C@H](C)CCCC(C)C)CC[C@@H]12 [CHOLECALCIFEROL]	Not Active	Not Active	Not Active	Not Active	Not Active	Not Active	Not Active	Not Active			Not Active	Not Active	Not Active	Not Active
C[N+](C)(C)CCO.[Cl-] [CHOLINE CHLORIDE]	Not Active	Not Active	Not Active	Not Active	Not Active	Not Active	Not Active	Not Active			Not Active	Not Active	Not Active	Not Active
CCOC(=O)C(C)(C)Oc1ccc(Cl)cc1 [CLOFIBRATE]	Not Active	Not Active	Not Active	Not Active	Not Active	Not Active	Not Active	Not Active			Not Active	Not Active	Not Active	Not Active
CC(=O)OCC(=O)[C@@]1(O)CC[C@H]2[C@@H]3CCC4=CC(=O)CC[C@]4(C)[C@H]3C(=O)C[C@@]21C [CORTISONE ACETATE]	Not Active	Not Active	Not Active	Not Active	Not Active	Not Active	Not Active	Not Active			Not Active	Not Active	Not Active	Not Active
O=c1ccc2ccccc2o1 [COUMARIN]	Not Active	Not Active	Not Active	Not Active	Not Active	Not Active	Not Active	Not Active			Not Active	Not Active	Not Active	Not Active
C[C@@H]1C[C@@H]([C@H](O)CC2CC(=O)NC(=O)C2)C(=O)[C@@H](C)C1 [CYCLOHEXIMIDE]	Not Active	Not Active	Not Active	Not Active	Not Active	Not Active	Not Active	Not Active			Not Active	Not Active	Not Active	Not Active
CN(C)/N=N/c1[nH]cnc1C(N)=O [DACARBAZINE]	Not Active	Not Active	Not Active	Not Active	Not Active	Not Active	Not Active	Not Active			Not Active	Not Active	Not Active	Not Active
